Tested on: M. tuberculosis H37Rv growth inhibition
Assay: M. tuberculosis H37Rv growth inhibitors, H37Rv strain (AID 1626)
Details: for IC90: measured here: IC90 against H37Rv; for CC50: measured here: Vero cell cytotoxicity

Row | Structure (SMILES) | IC50 | IC90 | CC50
1 | CCn1cnc2sc(C(=O)Oc3cccc(C)c3)c(C)c2c1=O | < 0.195 µM | 2.36 µM | 
2 | CCOc1ccc(NC2=C(OC)C(=O)c3ccccc3C2=O)cc1 | 28.3 µM | 44.1 µM | > 40 µM
3 | COc1ccc(N2CCN(C(=O)CN3CCN(c4nc(-c5ccc(F)cc5)cs4)CC3)CC2)cc1 |  |  | > 40 µM
4 | O=C(OCC#CCSc1nnc(-c2ccc(Br)cc2)o1)c1cccs1 | < 0.195 µM | 2.44 µM | 
5 | Cc1ccccc1N1CCN(C2=NC(=O)/C(=C\c3cccs3)S2)CC1 | 14.2 µM | 21 µM | > 40 µM
6 | Cc1ccc(OCCCc2c(C)n[nH]c2C)cc1 | 16.8 µM | > 100 µM | 
7 | O=C(Nc1nnc(-c2ccc3c(c2)OCCO3)o1)c1ccc(Cc2ccccc2)cc1 | 1.7 µM | > 100 µM | 38.1 µM
8 | O=C1CCC(=O)N1CNc1ccc(Oc2ccccc2)cc1 | 2.58 µM | > 100 µM | 
9 | CCc1ccccc1NC(=O)c1cccc(NC(=O)/C=C/c2ccco2)c1 |  |  | > 40 µM
10 | O=C(c1nnsc1S(=O)(=O)c1ccc(Cl)cc1)N1CCOCC1 | 7.98 µM | 11.6 µM | 11.3 µM
11 | O=C(CCCC(=O)OCC(=O)c1cccs1)Nc1ccc(Oc2ccccc2)cc1 | 17.4 µM | > 100 µM | 
12 | COc1cc(CC(=O)Nc2ccc3nc(SC)sc3c2)cc(OC)c1OC | 11.3 µM | 16.1 µM | 
13 | CCCCCCOc1cccc(N)c1 | 16.9 µM | > 100 µM | 
14 | c1ccc(CN2CCN(c3nc(NCc4ccco4)c4ccccc4n3)CC2)cc1 | 7.96 µM | 10.3 µM | 35.1 µM
15 | COc1cc(/C=C/c2ccc3c([N+](=O)[O-])cccc3n2)ccc1OCC(=O)O | 2.72 µM | 6.3 µM | 
16 | CCOC(=O)COc1ccc2ccccc2c1/C=C/[N+](=O)[O-] | 3.01 µM | 3.47 µM | 39.2 µM
17 | O=C(O)c1cn(-c2ccc(N3CCCC3)c(F)c2)c2c(F)c(F)c(F)cc2c1=O | 4.59 µM | 9.57 µM | > 40 µM
18 | C=CCn1c(SCc2csc(-c3ccc(C)cc3)n2)nnc1-c1ccccc1OC | 16.5 µM | 23.8 µM | > 40 µM
19 | Cc1ccc(NC(=O)COc2ccc(-n3ccnc3)cc2)cc1Cl | 3.82 µM | 12.2 µM | 
20 | CCC(CC)c1nnc(NC(=O)c2ccc3ccccc3n2)s1 | 0.814 µM | 1.48 µM | 35.7 µM
21 | COc1ccc(-c2nnc(SCC(=O)Nc3cc(C)on3)o2)cc1 | 3.86 µM | 6.19 µM | > 40 µM
22 | O=C(CCNc1ccc(Cl)c(C(F)(F)F)c1)c1ccco1 | 49.3 µM | > 100 µM | 

Row | Structure (SMILES) | IC50 | IC90 | CC50
23 | O=[N+]([O-])c1ncccc1Oc1nc(-c2cccnc2)nc2ccccc12 | 7.07 µM | > 100 µM | 
24 | COc1ccc(NCC(=O)Nc2ccc(C#N)cc2)cc1Cl | 8.28 µM | > 100 µM | > 40 µM
25 | O=C(Nc1nc(-c2ccccn2)cs1)C1CC(=O)N(c2ccc3c(c2)OCCO3)C1 (stereo not drawn) | 17.2 µM | > 100 µM | 36.7 µM
26 | CN(C)c1ccc(C(=O)Nc2nnc(C3=COCCO3)o2)cc1 | 23.5 µM | 26.7 µM | > 40 µM
27 | CCCc1nnc(NC(=O)c2c(O)c3cccc4c3n(c2=O)CCC4)s1 | < 0.391 µM | < 0.391 µM | 25.6 µM
28 | O=C(c1ccc(COc2ccc(Cl)cc2)o1)N1CCN(Cc2ccc3c(c2)OCO3)CC1 | 10.8 µM | 21.9 µM | > 40 µM
29 | COc1c(N2CCNC(C)C2)c(F)cc2c(=O)c(C(=O)O)cn(C3CC3)c12 (stereo not drawn) | < 0.195 µM | < 0.195 µM | 
30 | Brc1ccc(OCc2nc(-c3ccccn3)n[nH]2)cc1 |  |  | 10.6 µM
31 | CCCCCc1cc(=O)oc2c(C(CCN3CCCCC3)c3ccc(OC)cc3)c(OC)cc(OC)c12 (stereo not drawn) | 2.86 µM | 3.91 µM | 14.9 µM
32 | CCn1c(NC(=O)c2cccs2)nc2ccccc21 | 5.32 µM | > 100 µM | 
33 | COc1ccc2c(c1)CCc1c-2nc2ccccc2c1N1CCOCC1 | 11.5 µM | 18.6 µM | > 40 µM
34 | COC(=O)COc1ccc(-c2ccc(F)cc2)cc1C=O | 5.69 µM | 9.92 µM | 
35 | Nc1ccc(-n2ccnc2)cc1 | 41 µM | > 100 µM | 
36 | COc1ccc(C[C@H]2CN3C(=NC[C@@H]3Cc3ccc(O)cc3)N2C[C@H](C)NC(=O)c2ccc(C)c(Br)c2)cc1 | 6.33 µM | 9.21 µM | 
37 | CCOC(=O)c1ccc(NC(=O)CCc2c(C)nc3ncnn3c2C)cc1 |  | > 100 µM | 
38 | COc1ccc(C[C@H]2CN3C(=NC[C@H]3Cc3ccccc3)N2CCNC(=O)CCC2CCCCC2)cc1 | 10.9 µM | 12.3 µM | 29 µM
39 | Cc1ccc(S(=O)(=O)Nc2ccc(NC(=O)c3c(F)c(F)c(F)c(F)c3F)cc2)cc1 |  |  | 21.8 µM
40 | Cc1nc(SCc2ccccc2F)c2oc3ccccc3c2n1 |  | > 100 µM | 
41 | Nc1ccc(N=Nc2ccccc2)cc1 |  | > 100 µM | 
42 | C=CCn1c(O)c(C(C)=Nc2ccc(C(=O)OCC)cc2)c(=O)[nH]c1=O | 14 µM | > 100 µM | 
43 | Cc1cc(NCCCn2ccnc2)n2nc(-c3ccc(Cl)cc3)cc2n1 | 11.1 µM | 15.8 µM | > 40 µM

— PubChem BioAssay AID1626 (SRMLSC, 2009)
